Data set [1] concerns adolescents with Fontan physiology. Briefly: FUEL Trial safety, adverse event reports. Format: in vivo, human. An excerpt: The primary outcome was the change in oxygen consumption at peak exercise (max or peak VO2) from baseline to the 26-week visit. Secondary exercise outcomes included change in additional measures at maximal exertion, as well as change in measures of submaximal exercise at the ventilatory anaerobic threshold (VAT). The primary outcome for clinical secondary aims included change in myocardial performance index (MPI), an echocardiographically-derived measure of systolic and diastolic ventricular function, change in log-transformed reactive hyperemia index (InRHI), a PAT-derived measure of peripheral vascular function, and change in log-transformed serum BNP level. Safety was monitored through adverse event reports, which were collected according to a pre-specified protocol of study coordinator outreach, and through ad hoc patient and family communication with members of the study team at each site.
The primary outcome for clinical secondary aims included the between group differences in change in myocardial performance index (MPI), an echocardiographically-derived measure of systolic and diastolic ventricular function, change in log-transformed reactive hyperemia index (InRHI), a PAT-derived measure of peripheral vascular function, and change in log-transformed serum BNP level. Measurements for each of these secondary outcomes were performed at core labs. Safety was monitored through adverse event reports, which were collected according to a pre-specified protocol of study coordinator outreach, and through ad hoc patient and family communication with members of the study team at each site.
A sample size of 200 participants per arm was chosen to allow for 90% power to detect a mean treatment difference in change from baseline to 26-week testing in peak VO2 of 10% with a type 1 error of 0.05. We assumed a baseline standard deviation of 7.235 ml/kg/min, a correlation between peak VO2 measurements of 0.33, a drop-out and incomplete testing rate of 10%, and failure to reach maximal effort at the 26-week exercise testing in 15% of participants. These assumptions were based on historical data and reflect a conservative approach to assessing within-participant correlations and failure to reach maximal effort and the analysis was performed using a two-sample, independent means t-test. The primary analysis used the intention-to-treat population to evaluate the difference in the change in the primary outcome between treatment arms. This difference was assessed with an analysis of covariance (ANCOVA) with fixed factors for ventricular morphology (single left versus single right or mixed) and treatment group, with a continuous covariate of baseline peak VO2. For those without data at the 26-week visit, this value was imputed as equal to the baseline value (no change). The alpha level was set at 0.05 with two-sided testing. All statistical analyses were performed using SAS statistical software 9.4 (SAS Institute, Inc., Cary, North Carolina). Secondary analyses included participants who successfully completed the protocol with measurable values at each of the secondary endpoints. Secondary outcomes of continuous data points were analyzed in the manner described for the primary outcome. In order to assess the generalizability of findings at the ventilatory anaerobic threshold, demographic and clinical characteristics were compared between participants without paired VO2 at VAT data and those comprising the remainder of the cohort using the Student's t-test and Fisher's exact test. Fisher's exact test was used to compare adverse events between the udenafil and placebo cohorts.

The test system is the same in data set [2]. As to the kind of experiment: FUEL Trial peripheral arterial tonometry (EndoPAT), log-transformed reactive hyperemia index. Format: in vivo, human. The settings on record: for Log-transformed reactive hyperemia index, difference Week 26 - baseline, mean (SD): paired data. The text has this:
Baseline clinical testing completed before drug initiation included a blood draw to measure brain-type natriuretic peptide (BNP) level, a cardiopulmonary exercise test (CPET) using a standardized cycle ergometer ramp protocol, a standardized echocardiogram, and an assessment of peripheral vascular function using peripheral arterial tonometry (PAT) measured by finger cuff (EndoPAT; Itamar Medical, Israel). Participants who achieved maximal effort, defined as respiratory exchange ratio (RER)≥1.10 at peak exercise during CPET, were eligible for randomization and study drug initiation. […] End-of-study clinical testing included repeat measurement of serum BNP, CPET, echocardiogram, and PAT.
Baseline clinical testing completed before drug initiation included a blood draw to measure brain-type natriuretic peptide (BNP) level, a cardiopulmonary exercise test (CPET) using a standardized cycle ergometer ramp protocol (previously described in children and adolescents with Fontan physiology, Sleeper L A, Anderson P, Hsu D T, Mahony L, McCrindle B W, Roth S J, Saul J P, Williams R V, Geva T, Colan S D, Clark B J and Pediatric Heart Network I. Design of a large cross-sectional study to facilitate future clinical trials in children with the Fontan palliation. Am Heart J. 152(3):427-433 (September 2006), a standardized echocardiogram, and an assessment of peripheral vascular function using peripheral arterial tonometry (PAT) measured by finger cuff (EndoPAT; Itamar Medical, Israel). Participants who achieved maximal effort, defined as respiratory exchange ratio (RER)>1.10 at peak exercise during CPET, were eligible for randomization and study drug initiation. […] End-of-study clinical testing included repeat measurement of serum BNP, CPET, echocardiogram, and PAT. […]

`CCCOc1ccc(S(=O)(=O)NCCC2CCCN2C)cc1-c1nc2c(CCC)nn(C)c2c(=O)[nH]1` (stereo not shown) [Udenafil, udenafil]: in data set [1] (human, in vivo, 26 weeks), the “Dizziness, % of participants” value is reported as “(8.0) %”; the “Dizziness, number of participants” value stood at 16; the “Epistaxis, % of participants” value is given as “(10.5) %”; the “Epistaxis, number of participants” value was determined as 21. In addition, in data set [1] (human, in vivo, 26 weeks), the “Flushing, % of participants” value is “(16.0) %”; the “Flushing, number of participants” value is recorded as 32; the “Headache, % of participants” value is listed as “(39.5) %”; the “Headache, number of participants” value is given as 79. Moreover, in data set [1] (human, in vivo, 26 weeks), the “Nausea/vomiting, % of participants” value is “(15.5) %”; the “Nausea/vomiting, number of participants” value is 31; the “Participants who experienced a serious adverse event” value came to 14; the “Serious adverse events with possible, probable, or definite relationship to study drug” value worked out at 3. Moreover, in data set [1] (in vivo), the Priapism entry is reported as “no reported episodes of priapism”. In data set [1] (male, human, in vivo, 26 weeks), the “Increased erection, % of male participants” value is “(11.7) %” and the “Increased erection, number of participants” value was determined as 13. Also, the Deaths result in data set [1] (study cohort) is reported as “no deaths”. The “Log-transformed reactive hyperemia index, difference LS Mean (SE), udenafil vs placebo” value in data set [2] (ANCOVA) is reported as 0.02 (0.030). In data set [2], the “Log-transformed reactive hyperemia index, difference Week 26 - baseline, mean (SD)” value is listed as 0.06 (0.301). In addition, the “Log-transformed reactive hyperemia index, difference Week 26 - baseline, mean (SD)” value in data set [2] (listed as udenafil) was found to be 0.07.

These data come from patent US20240285630A1, “Methods and compositions for improving exercise performance” (MEZZION PHARMA CO., LTD., priority 2021, published 2024).
